Test results taken from patent US8163803B2 (Fundação Oswaldo Cruz—FIOCRUZ, priority 2004, dated 2012).

Assays:
[1] = tested on: patients; details: long-term treatment, nebulized; cited from earlier work
[2] = tested on: Na^+ currents in GH3 cells; experiment: Tonic block of Na+ currents in GH3 cells, whole cell patch clamp; format: cell-based, Rat; details: for IC50: GH3 cells, holding potential −80 mV to +60 mV step pulse, read-out: IC50, blockade of Na+ currents
Experimental: Ion channel currents were recorded by means of a patch clamp technique. The cells cultured on the cover glass were placed in a chamber fixed to a microscope stage and continuously perfused with extracellular Saline (A) solution (in mM); 150 NaCl, 5 KCl, 1 MgCl2, 0.01 CaCl2, 1 EGTA, 10 HEPES, 2 BaCl2, 0.1 CdCl2, pH 7.4 at room temperature (22-25° C.) adjusted with NaOH. The cells were observed using phase contrast mode under an inverted microscope (Axiovert 100, Carl Zeiss, Oberkochem, D Germany). Tight-seal (>10 GΩ) whole cell voltage-clamp recordings were performed with an Axopatch-1D amplifier (Axon Instruments, San Mateo, Calif.). […] Fifteen minutes after rupture of the patch membrane, we started to record ion channel currents. Pulse protocols and data acquisition were controlled by Digidata 1320 interface (Axon Instruments, Palo Alto, Calif.), and acquired on a personal computer using Clampex 9 software. The Na^+ current recordings were filtered at 1 kHz and sampled at 8 kHz. About 26% of series resistance was electronically compensated. Drugs were applied to the recording chamber by gravity. Perfusion rate was maintained at 0.8-1.1 ml/min and bath volume was of 50 μl. […] Voltage-gated Na^+ currents were recorded from these cells in the presence or absence of treatment.

[3] = tested on: sensitized experimental animals; experiment: Pulmonary eosinophil infiltrate after ovoalbumin aerosol challenge, bronchoalveolar lavage count; format: in vivo; details: 5% aerosol, 30 min, with ovoalbumin 1% plus 3 aerosolizations every 3 h; lavage 24 h after challenge
Experimental: The animals were sensitized through a cutaneous injection of a mixture with 50 μg ovoalbumin and 5 mg Al(OH)3, and challenged with ovoalbumin (1%) aerosol for 30 min 14 days afterwards, according to what was previously described. In order to avoid death of animals by anaphylatic asphyxia, all of them were treated intraperitonially with the anti-histaminic difenidramine (30 mg/kg) 30 minutes before being challenged.
Bronchoalveolar Lavage and Eosinophils Counting
All the animals were anesthesized terminally through an intraperitonial injection of pentobarbital (200 mg/kg) 24 h after the antigenic challenge, to wash the bronchoalveolar space according to the techniques previously described. Total leukocyte count were done after dilution of bronchoalveolar lavage samples in Turk liquid and counting in the Neubauer chamber with the assistance of direct-light microscopy. The differential eosinophil count was done also under direct-light microscopy, after centrifugation of samples of the lavage as well as its exposure to specific dyestuff (May-Grunwald-Giemsa dye).
The averages± standard error of the mean of the groups investigated were analyzed based on statistics through the test of variance analysis (ANOVA), followed by the Newman-Keuls-Student test.
Values, expressed in terms of “number of eosinophils×10^6/lavage” are presented as average±SEM in at least 7 animals. In the negative control group, animals previously sensitized were artificially-challenged through exposure to sterile saline (NaCl, 0.9%) aerosol. […] “*” represents the difference statistically significant (P<0.05), when the group treated and the positive control group were compared.

SMILES | patients with relief of asthma symptoms and diminished dependency on steroidal anti-inflammatory treatment [1] | IC50 [2] [µM] | blocking the accumulation of eosinophils in the bronchoalveolar area [3] | 50% inhibitory concentration, times higher than lidocaine ([2]; ratio to lidocaine IC50) [times]
CCN(CC)CC(=O)Nc1c(C)cccc1C [Lidocaine, 1-(2-(dyethylamine)N-dymethylfenyl)-acetamide, reference compound] | 20 out of 24 | 180 | clearly sensitive to lidocaine treatment | –
CCN(CC)CC(=O)Nc1ccc(C)cc1C [JM24-1, 2-dyethylamine-2′,4′-acetoxylidide] | – | 5200 | equipotent to lidocaine | 29
